EC50 and ED50 data for two compounds are collected here from US20130253022A1 (FOX CHASE CHEMICAL DIVERSITY CENTER, INC., priority 2010, published 2013).

The subject of assay [1] is Hippocampal Cultures. Description: Neuroprotection from heavy metal toxicity, propidium iodide assay. Format: cell-based. The following applies: Rattus norvegicus, read-out: Neuroprotection EC50 PI. From the text: All compounds were screened with dissociated hippocampal cultures derived from embryonic day 18 rats as the primary test system. With this preparation, primary neurons were used to test for prevention of heavy metal toxicity by the disclosed compounds. In brief, hippocampal tissue was obtained commercially through Brain Bits (Springfield, Ill.) and cultures prepared as previously described (Brewer, G. J. Serum-free B27/neurobasal medium supports differentiated growth of neurons from the striatum, substantia nigra, septum, cerebral cortex, cerebellum and dentate gyms, J. Neurosci. Res., 1995, 42, 674-683). The hippocampal neurons were platted at low density (10,000 cell/well) in a 96-well format and maintained in serum-free medium consisting of Neurobasal Medium supplemented with B27 and GlutaMAX (Gibco). Pre-coated poly-L-lysine coated plates are used because of the preferential adherence and survival of hippocampal neurons on this matrix support. Heavy metal toxicity is associated with the occurrence of seizures ([…] et al. Zinc and copper: pharmacological probes and endogenous modulators of neuronal excitability. Pharmacol. Ther. 2006, 111, 567-583). Therefore, the heavy metal toxicity studies serve as another example of the oxidative stress that the disclosed compounds have a protection action against. To establish the dose-dependency of test agents, day 18 hippocampal cultures were utilized to study the toxicity produced after treatment with the heavy metals and neuroprotection after treatment with test compounds. Serving as examples of heavy metal salts for these studies are the following: […] Prior to treatment, the B27/Neural Basal media of the cultures were replaced with B27 neural basal medium without antioxidants for 18 hours. […] Further, the removal of antioxidants in the medium was performed to obtain a significant and reproducible toxic signal for heavy metal treatment of the hippocampal neurons. At the conclusion of the 4 hour test period, the cultures are also tested for the amount of cell death as measured by the propidium iodide method. […] After removal of the growth medium, 50 μl of the 50 μM PI solution is added to cultures and allowed to incubate in the dark at room temperature for 15 min. The cultures are then assessed for fluorescence intensity at Ex536/Em590 nm in a CytoFluor fluorimeter. Results are expressed in relative fluorescent units. […] The test compound is added to the hippocampal cultures at concentrations that range from […] to […]. The incubation period is for four hours followed by the measurement of fluorescence at Ex536/Em590 nm in a CytoFluor fluorimeter. Results are expressed in relative fluorescent units. Background fluorescence was subtracted from values obtained from wells without cells.

Assay [2] concerns Hippocampal Cultures. Briefly: Neuroprotection from hydrogen peroxide (oxidative stress), CFDA assay. The format is cell-based. Particulars: Rattus norvegicus; 10 μM hydrogen peroxide, hippocampal cultures, 4 hour test period; read-out: NP from Hydrogen Peroxide CFDA EC50. From the text:
Cell cultures: All compounds are screened with dissociated hippocampal cultures derived from embryonic day 18 rats as the primary test system. With this preparation, primary neurons are used to test for toxicity as well as neuroprotection in a highly relevant experimental system to epilepsy. In brief, hippocampal tissue are obtained commercially through Brain Bits (Springfield, Ill.) and cultures prepared as previously described by Brewer (Brewer, G. J. Serum-free B27/neurobasal medium supports differentiated growth of neurons from the striatum, substantia nigra, septum, cerebral cortex, cerebellum and dentate gyms, J. Neurosci. Res. 1995, 42, 674-683). The hippocampal neurons are platted at low density (10,000 cell/well) in a 96-well format and maintained in serum-free medium consisting of Neurobasal Medium supplemented with B27 and GlutaMAX (Gibco). Pre-coated poly-L-lysine coated plates are used because of the preferential adherence and survival of hippocampal neurons on this matrix support.
Potent neuroprotection is the distinguishing characteristic that separates this program's anticonvulsants from all other commercial drugs for epilepsy. The experimental details and the rationale for the implemented assays are essential in differentiating these compounds from that of others. The central objective of all neuroprotective assays was their relevancy to excitotoxicity and oxidative stress related to epilepsy. Both the amount of glutamate and hydrogen peroxide used in the assays, as well as the time of treatment and duration of the experiment, were designed to be relevant to epilepsy. Further, all time parameters employed in these studies were empirically determined to be within the limits of reversible toxic events, yet using amounts of glutamate and hydrogen peroxide that were relevant to the disease. In regard to glutamate toxicity, a critical feature was the duration of treatment of the hippocampal neurons. The rational for using a short 5 min treatment with glutamate was based on the observation of Randall and Thayer (Randall, R. D.; Thayer, S. A. Glutamate-induced calcium transient triggers calcium overload and neurotoxicity in rat hippocampal neurons, J. Neurosci. 1992, 12, 1882-1895). […] The rationale is that this intense burst of glutamate and resulting calcium overload is relevant to seizures and therefore was important data to capture in the screening assay. The amount of glutamate (30 μM) employed in our screening was based on the basal levels of glutamate observed in microdialysis measurements of hippocampus from epileptogenic patients (Cavus et al. Decreased hippocampal volume on MRI is associated with increased extracellular glutamate in epilepsy patients, Epilepsia, 2008, 49, 1358-1366). In regard to hydrogen peroxide, the amount employed (10 μM) was detected in the hippocampus of rats after kainate-induced status epilepticus (Jarrett et. al., Mitochondrial DNA damage and impaired base excision repair during epileptogenesis, Neurobiol. Dis. 2008, 30, 130-138). To produce neural damage and death with these amounts of glutamate and hydrogen peroxide, the cultures were changed to a medium with significant depletion of antioxidant components in the defined medium supplement B-27 just prior to treatment with the compounds. This was performed to obtain a significant and reproducible toxic signal in the hippocampal neurons and because loss of antioxidant control may be a component of epileptogenesis (Waldbaum and Patel, Mitochondria, oxidative stress and temporal lobe epilepsy, Epilepsy Res. 2010 88, 23-45; Wu et al., Mitochondrial DNA mutation-elicited oxidative stress, oxidative damage, and altered gene expression in cultured cells of patients with MERRF syndrome, Mol. Neurobiol. 2010, 41, 256-266). Neuroprotection studies with hydrogen peroxide were conducted with cultures that were between day 12 and day 18. Studies of neuroprotection glutamate were conducted between day 19 and day 22. […]

The test system of the next assay is 6-Hz psychomotor seizure. Briefly: 6 Hz psychomotor seizure test, mouse. The format is in vivo, mice. The following applies: ip. The protocol:
Methods to measure anticonvulsant activity: All tests were conducted by the Anticonvulsant Screening Program (ASP) of the National Institute of Neurological Disease and Stroke at the National Institutes of Health. The 6 Hz Seizure Test: Compounds were further tested in the 6-Hz psychomotor seizure model. (Barton et al. Pharmacological characterization of the 6 Hz psychomotor seizure model of partial epilepsy. Epilepsy Res. 2001, 47, 217-227). This model is used to detect […] that may be useful for the treatment of therapy-resistant partial seizures. For this test, an alternative electrical stimulation paradigm is used with a low frequency (6 Hz), long duration (3 seconds) corneal stimulation. The seizure evoked by this low frequency stimulation is characterized by immobility, forelimb clonus, Straub tail and facial automatisms. Mice are tested from 15 min to 4 hours following an intraperitoneal dose of 100 mg/kg. Abolition of the clonic seizures indicates the ability of a compound to prevent partial or psychomotor seizures.

SMILES strings stand for the structures.

For `NS(=O)(=O)NCC(F)(F)c1ccccc1F` [Example 1, 2,2-Difluoro-2-(2-fluorophenyl)-ethyl-1-sulfamide], the EC50 (as a rule, the concentration needed to bring the measured effect to its halfway point) in the assay on Hippocampal Cultures [1] (Cobalt Chloride hexahydrate 10 μM) amounted to 0.1 nM; in the assay with Hippocampal Cultures [1] (Copper Acetate monohydrate 10 μM) it was 0.1 nM; with Hippocampal Cultures [1] (Iron sulfate hexahydrate 10 μM) it was 0.01 nM; with Hippocampal Cultures [1] (Nickel Chloride hexahydrate 10 μM) it was 0.1 nM; with Hippocampal Cultures [1] (Zinc Acetate dehydrate 1 μM), 0.01 nM; with Hippocampal Cultures [2], 1 nM. Further, in the assay on 6-Hz psychomotor seizure, it took a dose of 18 mg/kg to reach the 50% effect level (ED50).
On to `NS(=O)(=O)NCC(F)(F)c1ccccc1Cl` [Example 2, 2,2-Difluoro-2-(2-chlorophenyl)-ethyl-1-sulfamide], for which, in the assay with Hippocampal Cultures [2], the EC50 was found to be 0.1 nM. Also, the median effective dose (ED50) (usually the dose at which the effect has come halfway, by size or by number of responders) with 6-Hz psychomotor seizure stood at 28 mg/kg.
